Assays:
[1] = test system: Non-Hodgkin's B cell lymphoma (RL) tumor; test: RL human tumor xenograft regression assay; type: in vivo, human tumor in female NIH Swiss nude mice; conditions: for gross toxicity: 2780 75, 2889 90, 2897 75, 2900 60, 2727 60 mg/kg (2727: reduced to once per day); for tumor regression: within the first two weeks of dosing, IV morning + IP afternoon, 2780 75, 2889 90, 2897 75, 2900 60, 2727 60 mg/kg; for average tumor volume, % of tumor volume obtained in the control: Day 21, 75 mg/kg
Protocol: The antitumor activity of a cyanoguanidine compound of this invention can also be evaluated by in vivo testing, e.g., human tumor xenograft regression assays. Animals bearing established tumors are treated with a test compound for a three-week period. The growth of the tumors and the general health of the animal are monitored during the three-week treatment and for two more weeks after treatment to determine if tumor regrowth occurs. See Example 150 below.
(§1) From the in vitro results obtained, cyanoguanidine compounds were selected for human tumor xenograft regression assays. Animals bearing established tumors (RL) were treated with a test compound for a three-week period. The growth of the tumors and the general health of the animals were monitored during the treatment and for an additional two weeks after dosing had been terminated to determine if tumor regrowth took place.
(§2) Non-Hodgkin's B cell lymphoma (RL) tumor cells, which were adapted to grow as solid tumors, were implanted by an intradermal injection of a tumor cell suspension (30×10^6 cells in 0. 1 mL media) in the flanks of female NIH Swiss nude mice (Taconic Labs). Each mouse was implanted with one tumor and 6-8 mice per group were used.
(§3) Dosing was initiated one week after implantation (Day 1), when tumors reached approximately 50 to 100 mm^3 in volume, with a test compound or vehicle five times per week for three weeks either intravenously (IV) or intraperitoneally (IP). Cyclophosphamide (CTX, Sigma) was used as a standard in the assays. Compounds were first dissolved in DMSO (Sigma) and formulated with 20% Cremophor RH40 (BASF) to a final concentration of 10% DMSO/18% Cremophor. The formulated solution was made fresh daily.
(§4) Tumors, assumed to be hemi-ellipsoid in shape, were measured with calipers in three dimensions. Tumor volumes were calculated using the equation:
(§5) where L=length, W=width, and H=height of the tumor. Animals were weighed and their general health was monitored during the course of the assay. When tumors became necrotic or if animals became moribund, the animals were euthanized by CO2 asphyxiation. Student's t test was used to determine if there was a significant difference between the data obtained in the compound treated group and the vehicle treated group.
In a preliminary RL tumor growth regression assay, eight compounds were administered twice a day (via IV route in the morning and IP route in the afternoon) for five days per week for a three-week period. […] For comparison, cyclophosphamide, reduced the average tumor volume to 2% of control by Day 18. […] Compounds SBR-11-2899 (75 mg/kg), SBR-11-2750 (75 mg/kg), and SBR-11-2749 (75 mg/kg) reduced the average tumor volume to 10%, 14%, and 18% of the tumor volume obtained in the control on Day 21, respectively. One compound, SBR-11-4483 (60 mg/kg) was administered once per day (via IV route) for a two-week period. By day 19, a reduction of the average tumor volume to 1% was observed.

[2] = test system: Non-Hodgkin's B cell lymphoma (RL) tumor; test: RL tumor growth regression assay, dose dependence; type: in vivo; conditions: for weight loss: all mice except one CTX-treated mouse; for effect on tumor volume (in words): three doses
Protocol: as §1, §2, §3, §4, §5
The ability of compounds to act in a dose dependent manner was assayed in an RL tumor growth regression assay using compounds SBR-11-2897 and SBR-11-2780.

[3] = test system: tumor cell line (PC-3) versus normal cell line (CV-1); test: Tumor cell selectivity: IC50 normal cell line (CV-1) versus tumor cell line (PC-3); type: cell-based, human (PC-3); monkey (CV-1, transformed monkey kidney cells); conditions: CV-1 normal cell line vs PC-3 tumor cell line
Protocol: The antitumor activity of a cyanoguanidine compound of this invention can be evaluated by MTS colorimetric assay (see Example 149 below). Results obtained by using cell lines of various types of tumors are compared with those obtained by using cell lines of normal cells in this assay. Viability of the cells in each cell line is estimated by measuring the cellular conversion of a tetrazolium salt after incubating the cells in a solution containing a test cyanoguanidine compound in a 96 well plate. IC50 values obtained by using an identical test compound on normal cells and cells of a particular tumor cell line are compared and their ratio (IC50 normal cell /IC50 cancer cell) indicates the cancer selectivity of that test compound. The higher the ratio, the higher the selectivity of the test compound towards that particular type of cancer cell.
In the secondary screening, IC50 values were determined. Cells were seeded at a low cell density in 96 well flat-bottom plates and incubated for 24 hours at 37° C. in a 7% CO2 atmosphere. […]

[4] = twice a day IV + IP, 5 days/week, 3 weeks
[5] = twice a day IV + IP, 5 days/week, 3 weeks, 2780 75, 2889 90, 2897 75, 2900 60 mg/kg

| SMILES | gross toxicity [1, 4] | tumor regression ([1]; 5 days/week) | weight loss [1, 5] | also measured |
| --- | --- | --- | --- | --- |
| N#CN=C(NCc1ccc(NC(=O)C2c3ccccc3-c3ccccc32)cc1)Nc1ccncc1 [SBR-11-2727, 9H-fluorene-9-carboxylic acid (4-(N'-cyano-N"-pyridin-4-yl-guanidinomethyl)-phenyl)-amide] | signs of gross toxicity within the first week | completely regressed all tumors |  |  |
| COc1ccc2cc(C(C)C(=O)Nc3ccc(CNC(=NC#N)Nc4ccncc4)cc3)ccc2c1 (stereo not shown) [SBR-11-2749, 2-(6-Methoxy-naphthalen-2-yl)-N-(4-(N'-cyano-N"-pyridin-4-yl-guanidinomethyl)-phenyl)-propionamide] |  |  |  | average tumor volume, % of tumor volume obtained in the control ([1]; twice a day IV + IP): 18% |
| N#CN=C(NCc1ccc(NC(=O)c2ccccc2Cc2ccccc2)cc1)Nc1ccncc1 [SBR-11-2750, 2-Benzyl-N-(4-(N'-cyano-N"-pyridin-4-yl-guanidinomethyl)-phenyl)-benzamide] |  |  |  | average tumor volume, % of tumor volume obtained in the control ([1]; twice a day IV + IP): 14% |
| Cc1c(C)c2c(c(C)c1O)CCC(C)(C(=O)Nc1ccc(CNC(=NC#N)Nc3ccncc3)cc1)O2 (stereo not shown) [SBR-11-2780, 6-Hydroxy-2,5,7,8-tetramethyl-chroman-2-carboxylic acid (4-(N'-cyano-N"-pyridin-4-yl-guanidinomethyl)-phenyl)-amide] | little gross toxicity | completely regressed all tumors | less than 10% | average tumor volume, % of control group ([2]; 20 mg/kg): 86%; average tumor volume, % of control group ([2]; 40 mg/kg): 24%; average tumor volume, % of control group ([2]; 80 mg/kg): 3%; weight loss [2]: Less than 10%; effect on tumor volume (in words) [2]: dose dependent effect |
| Cc1cc(C)c(S(=O)(=O)Nc2ccc(CNC(=NC#N)Nc3ccncc3)cc2)c(C)c1 [SBR-11-2889, 2,4,6-Trimethyl-N-(4-(N'-cyano-N"-pyridin-4-yl-guanidinomethyl)-phenyl)-benzenesulfonamide] | little gross toxicity | completely regressed all tumors | less than 10% |  |
| CN(C)c1cccc2c(S(=O)(=O)Nc3ccc(CNC(=NC#N)Nc4ccncc4)cc3)cccc12 [SBR-11-2897, 5-Dimethylamino-naphthalene-1-sulfonic acid (4-(N'-cyano-N"-pyridin-4-yl-guanidinomethyl)-phenyl)-amide] | little gross toxicity | completely regressed all tumors | less than 10% | weight loss [2]: Less than 10%; effect on tumor volume (in words) [2]: almost complete reduction of average tumor volumes |
| N#CN=C(NCc1ccc(NS(=O)(=O)c2cccc(C(F)(F)F)c2)cc1)Nc1ccncc1 [SBR-11-2899, N-(4-(N'-Cyano-N"-pyridin-4-yl-guanidinomethyl)-phenyl)-3-trifluoromethyl-benzenesulfonamide] |  |  |  | average tumor volume, % of tumor volume obtained in the control ([1]; twice a day IV + IP): 10% |
| N#CN=C(NCc1ccc(NS(=O)(=O)c2cccc3ccccc23)cc1)Nc1ccncc1 [SBR-11-2900, Naphthalene-1-sulfonic acid (4-(N'-cyano-N"-pyridin-4-yl-guanidinomethyl)-phenyl)-amide] | little gross toxicity | completely regressed all tumors | less than 10% |  |
| N#CNC(=Nc1ccncc1)NCCN1CCC(OC(c2ccccc2)c2ccccc2)CC1 [SBR-11-4483, N-[2-(4-Benzhydryloxy-piperidin-1-yl)-ethyl]-N'-cyano-N"-pyridin-4-yl-guanidine] |  |  |  | weight loss ([1]; 60 mg/kg once per day IV, two weeks): less than 10%; reduction of the average tumor volume to ([1]; by day 19, 60 mg/kg once per day IV, two weeks): 1% |
| CC(=O)O[C@H]1C(=O)[C@@]2(C)[C@H]([C@H](OC(=O)c3ccccc3)[C@]3(O)C[C@H](OC(=O)[C@H](O)[C@@H](NC(=O)c4ccccc4)c4ccccc4)C(C)=C1C3(C)C)[C@]1(OC(C)=O)CO[C@@H]1C[C@@H]2O [Taxol] |  |  |  | selectivity of tumor cells (IC50 normal cell /IC50 cancer cell) [3]: 20 fold |
| O=P1(N(CCCl)CCCl)NCCCO1 (stereo not shown) [cyclophosphamide, Cyclophosphamide, reference compound] |  |  |  | average tumor volume, % of control ([1]; by Day 18, cyclophosphamide standard): 2% |

— patent publication US6255323A, “Cyanoguanidine compounds” (Shionogi Bioresearch Corp., priority 2000, dated 2001)
